Like-named read-outs stand apart in the source and are kept apart here.
What was measured:
EGFR del19/T790M/C797S = EGFR del19/T790M/C797S (Homo sapiens, UniProt P00533, C797S/DEL746-750/T790M); assay: Biochemical EGFR kinase assay (Lance Ultra TR-FRET), triple mutant del19/T790M/C797S
Summary of the method: (§1)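 In this biochemical assay, phosphorylation after a one-hour room-temperature reaction was detected with europium-labelled anti-phosphopeptide antibody at 2 nM final concentration.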

EGFR del19/C797S = EGFR del19/C797S (Homo sapiens, UniProt P00533, C797S/DEL746-750); assay: Biochemical EGFR kinase assay (Lance Ultra TR-FRET), double mutant del19/C797S
Chain of EGFR del19/C797S (P00533 with tags, fused parts or gaps DEL746-750/C797S): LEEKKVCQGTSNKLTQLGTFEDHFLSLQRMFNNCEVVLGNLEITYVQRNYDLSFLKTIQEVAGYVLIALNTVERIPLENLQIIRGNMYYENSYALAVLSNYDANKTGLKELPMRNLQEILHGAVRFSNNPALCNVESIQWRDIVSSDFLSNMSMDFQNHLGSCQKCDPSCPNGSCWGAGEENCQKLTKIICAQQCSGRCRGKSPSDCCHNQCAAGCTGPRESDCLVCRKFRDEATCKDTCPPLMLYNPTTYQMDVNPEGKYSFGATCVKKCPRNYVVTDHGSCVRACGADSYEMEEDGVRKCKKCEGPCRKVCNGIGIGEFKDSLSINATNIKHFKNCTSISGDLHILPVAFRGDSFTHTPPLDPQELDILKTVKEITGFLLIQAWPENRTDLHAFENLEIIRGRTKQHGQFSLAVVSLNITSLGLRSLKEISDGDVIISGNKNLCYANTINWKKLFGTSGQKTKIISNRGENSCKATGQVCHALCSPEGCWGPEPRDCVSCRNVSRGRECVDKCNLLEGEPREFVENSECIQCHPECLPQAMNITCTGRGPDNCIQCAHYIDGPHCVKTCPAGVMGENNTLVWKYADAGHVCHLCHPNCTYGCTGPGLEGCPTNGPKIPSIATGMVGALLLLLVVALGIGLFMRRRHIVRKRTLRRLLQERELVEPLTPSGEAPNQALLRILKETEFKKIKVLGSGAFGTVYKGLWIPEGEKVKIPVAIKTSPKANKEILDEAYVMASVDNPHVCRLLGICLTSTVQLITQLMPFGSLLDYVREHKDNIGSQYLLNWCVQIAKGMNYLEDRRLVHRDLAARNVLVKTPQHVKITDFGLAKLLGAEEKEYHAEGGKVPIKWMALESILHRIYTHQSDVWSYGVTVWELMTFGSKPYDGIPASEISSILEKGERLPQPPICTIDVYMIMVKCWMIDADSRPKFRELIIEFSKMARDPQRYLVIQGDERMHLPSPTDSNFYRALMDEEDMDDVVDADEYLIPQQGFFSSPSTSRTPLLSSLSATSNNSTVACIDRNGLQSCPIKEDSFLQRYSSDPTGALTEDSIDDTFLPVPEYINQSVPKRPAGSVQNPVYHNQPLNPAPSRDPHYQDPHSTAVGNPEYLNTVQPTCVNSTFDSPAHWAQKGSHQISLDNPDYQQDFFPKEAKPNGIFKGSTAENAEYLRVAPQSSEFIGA
Summary of the method: as §1

EGFR L858R/C797S = EGFR L858R/C797S (Homo sapiens, UniProt P00533, C797S/L858R); assay: Biochemical EGFR kinase assay (Lance Ultra TR-FRET), double mutant L858R/C797S
Summary of the method: as §1

EGFR L858R/T790M/C797S = EGFR L858R/T790M/C797S (Homo sapiens, UniProt P00533, C797S/L858R/T790M); assay: Biochemical EGFR kinase assay (Lance Ultra TR-FRET), triple mutant L858R/T790M/C797S
Chain of EGFR L858R/T790M/C797S (P00533 25-1210 T790M/C797S/L858R): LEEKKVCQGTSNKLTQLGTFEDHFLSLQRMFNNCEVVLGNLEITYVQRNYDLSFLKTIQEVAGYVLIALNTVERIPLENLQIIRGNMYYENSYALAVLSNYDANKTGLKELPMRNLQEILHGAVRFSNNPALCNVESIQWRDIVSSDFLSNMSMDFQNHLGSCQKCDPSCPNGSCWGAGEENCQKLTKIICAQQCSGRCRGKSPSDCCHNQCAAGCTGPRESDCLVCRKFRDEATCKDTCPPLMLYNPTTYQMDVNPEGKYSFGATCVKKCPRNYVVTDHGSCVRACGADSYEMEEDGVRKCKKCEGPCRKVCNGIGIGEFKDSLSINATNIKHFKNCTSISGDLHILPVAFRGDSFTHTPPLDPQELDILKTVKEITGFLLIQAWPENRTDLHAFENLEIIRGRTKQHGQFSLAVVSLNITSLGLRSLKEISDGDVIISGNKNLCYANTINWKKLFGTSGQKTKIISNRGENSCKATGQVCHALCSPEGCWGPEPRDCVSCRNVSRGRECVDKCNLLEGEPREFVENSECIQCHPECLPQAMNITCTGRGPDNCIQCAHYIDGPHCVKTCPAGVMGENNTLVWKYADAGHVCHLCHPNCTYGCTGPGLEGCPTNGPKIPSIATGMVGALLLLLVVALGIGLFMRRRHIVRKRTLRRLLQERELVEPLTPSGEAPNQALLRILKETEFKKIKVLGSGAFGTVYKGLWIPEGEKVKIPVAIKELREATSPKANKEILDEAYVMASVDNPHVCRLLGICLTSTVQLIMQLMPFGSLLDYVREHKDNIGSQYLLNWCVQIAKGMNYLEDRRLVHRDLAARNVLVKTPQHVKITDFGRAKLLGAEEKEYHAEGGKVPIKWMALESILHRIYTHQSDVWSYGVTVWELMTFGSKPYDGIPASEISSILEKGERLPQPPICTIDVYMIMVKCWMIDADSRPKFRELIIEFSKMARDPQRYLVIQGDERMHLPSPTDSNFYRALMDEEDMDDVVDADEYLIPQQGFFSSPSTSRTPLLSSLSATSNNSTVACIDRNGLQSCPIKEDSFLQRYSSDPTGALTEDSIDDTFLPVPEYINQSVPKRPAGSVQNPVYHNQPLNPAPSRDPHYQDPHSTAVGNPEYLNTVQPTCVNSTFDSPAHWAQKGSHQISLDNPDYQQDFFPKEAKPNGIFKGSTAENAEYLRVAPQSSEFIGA
Summary of the method: as §1

EGFR wildtype = EGFR wildtype (Homo sapiens, UniProt P00533); assay: Biochemical EGFR kinase assay (Lance Ultra TR-FRET), wildtype
Chain of EGFR wildtype (P00533 25-1210): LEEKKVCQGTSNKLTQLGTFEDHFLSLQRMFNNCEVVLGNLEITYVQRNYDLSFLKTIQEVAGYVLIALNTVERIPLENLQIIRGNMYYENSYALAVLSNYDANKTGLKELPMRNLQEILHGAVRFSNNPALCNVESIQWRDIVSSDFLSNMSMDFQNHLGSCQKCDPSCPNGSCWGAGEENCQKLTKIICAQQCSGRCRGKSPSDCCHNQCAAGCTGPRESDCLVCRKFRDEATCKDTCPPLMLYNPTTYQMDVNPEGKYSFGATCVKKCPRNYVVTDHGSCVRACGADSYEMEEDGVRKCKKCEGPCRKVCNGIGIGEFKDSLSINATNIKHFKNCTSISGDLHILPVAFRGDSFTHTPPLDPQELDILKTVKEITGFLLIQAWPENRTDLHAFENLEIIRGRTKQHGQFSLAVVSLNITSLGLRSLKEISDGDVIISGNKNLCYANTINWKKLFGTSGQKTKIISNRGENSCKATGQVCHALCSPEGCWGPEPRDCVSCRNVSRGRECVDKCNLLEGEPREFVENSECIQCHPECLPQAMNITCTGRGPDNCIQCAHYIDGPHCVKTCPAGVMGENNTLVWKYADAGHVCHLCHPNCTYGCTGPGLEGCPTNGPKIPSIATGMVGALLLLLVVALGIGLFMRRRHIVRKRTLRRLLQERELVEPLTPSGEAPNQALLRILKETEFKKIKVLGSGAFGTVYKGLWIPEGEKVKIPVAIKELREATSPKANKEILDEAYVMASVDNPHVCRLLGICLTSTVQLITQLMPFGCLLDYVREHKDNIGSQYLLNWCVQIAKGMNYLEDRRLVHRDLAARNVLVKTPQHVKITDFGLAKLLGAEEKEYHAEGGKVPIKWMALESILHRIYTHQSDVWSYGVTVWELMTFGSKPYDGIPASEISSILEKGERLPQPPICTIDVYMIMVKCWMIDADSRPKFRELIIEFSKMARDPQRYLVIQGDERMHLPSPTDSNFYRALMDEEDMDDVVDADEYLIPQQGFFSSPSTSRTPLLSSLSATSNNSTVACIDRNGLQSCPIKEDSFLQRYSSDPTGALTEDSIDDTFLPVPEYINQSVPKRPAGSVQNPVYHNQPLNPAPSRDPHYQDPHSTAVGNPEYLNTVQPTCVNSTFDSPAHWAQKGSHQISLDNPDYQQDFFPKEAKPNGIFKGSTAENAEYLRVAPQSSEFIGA
Summary of the method: as §1

[1] = ATP at Km, read-out: IC50 del19/T790M/C797S, Km ATP
[2] = IC50 del19/T790M/C797S, 100 μM ATP
[3] = ATP at Km, read-out: IC50 del19/C797S, Km ATP
[4] = ATP at Km, read-out: IC50 L858R/C797S, Km ATP
[5] = ATP at Km, read-out: IC50 L858R/T790M/C797S, Km ATP
[6] = IC50 L858R/T790M/C797S, 100 μM ATP
[7] = ATP at Km, read-out: IC50 WT, Km ATP
[8] = Km ATP, read-out: IC50 del19/T790M/C797S (nM) Km ATP
[9] = Km ATP, read-out: IC50 del19/C797S (nM) Km ATP
[10] = Km ATP, read-out: IC50 L858R/C797S (nM) Km ATP
[11] = Km ATP, read-out: IC50 L858R/T790M/C797S (nM) Km ATP
[12] = Km ATP, read-out: IC50 WT (nM) Km ATP

Chain of EGFR del19/T790M/C797S (P00533 with tags, fused parts or gaps DEL746-750/T790M/C797S): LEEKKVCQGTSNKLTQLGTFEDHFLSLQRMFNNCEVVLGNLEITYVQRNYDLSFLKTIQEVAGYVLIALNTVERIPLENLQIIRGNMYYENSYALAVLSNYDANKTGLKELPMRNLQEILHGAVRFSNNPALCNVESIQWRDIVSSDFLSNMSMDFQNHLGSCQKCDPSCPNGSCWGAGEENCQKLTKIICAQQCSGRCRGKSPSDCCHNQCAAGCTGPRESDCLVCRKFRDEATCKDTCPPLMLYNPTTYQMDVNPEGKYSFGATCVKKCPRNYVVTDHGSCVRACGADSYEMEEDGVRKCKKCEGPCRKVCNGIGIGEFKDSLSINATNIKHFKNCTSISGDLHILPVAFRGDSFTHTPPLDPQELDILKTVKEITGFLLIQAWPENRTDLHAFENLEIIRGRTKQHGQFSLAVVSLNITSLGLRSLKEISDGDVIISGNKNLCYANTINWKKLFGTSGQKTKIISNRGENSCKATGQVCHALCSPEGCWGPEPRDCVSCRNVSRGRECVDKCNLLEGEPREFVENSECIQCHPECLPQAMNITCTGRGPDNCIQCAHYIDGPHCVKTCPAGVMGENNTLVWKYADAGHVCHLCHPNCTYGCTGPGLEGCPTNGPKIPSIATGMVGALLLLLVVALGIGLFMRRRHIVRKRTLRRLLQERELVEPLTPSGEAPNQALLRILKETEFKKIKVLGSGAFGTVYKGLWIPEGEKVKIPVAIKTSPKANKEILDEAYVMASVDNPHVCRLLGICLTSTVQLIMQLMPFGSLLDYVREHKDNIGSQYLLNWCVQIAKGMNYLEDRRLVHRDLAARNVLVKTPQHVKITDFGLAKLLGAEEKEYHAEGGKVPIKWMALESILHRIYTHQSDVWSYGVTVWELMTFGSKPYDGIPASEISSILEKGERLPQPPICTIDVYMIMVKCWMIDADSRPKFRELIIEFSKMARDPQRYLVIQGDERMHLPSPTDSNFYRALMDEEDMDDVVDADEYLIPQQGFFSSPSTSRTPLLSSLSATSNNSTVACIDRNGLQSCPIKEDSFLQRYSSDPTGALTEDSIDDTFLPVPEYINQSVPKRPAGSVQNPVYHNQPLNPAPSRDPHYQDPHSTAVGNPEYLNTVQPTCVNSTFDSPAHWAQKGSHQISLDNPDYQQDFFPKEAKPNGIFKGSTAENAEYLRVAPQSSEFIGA

| IC50 (EGFR del19/T790M/C797S; [1]) | IC50 (EGFR del19/T790M/C797S; [2]) | IC50 (EGFR del19/C797S; [3]) | IC50 (EGFR del19/C797S; IC50 del19/C797S, 100 μM ATP) | IC50 (EGFR L858R/C797S; [4]) | IC50 (EGFR L858R/C797S; IC50 L858R/C797S, 100 μM ATP) | IC50 (EGFR L858R/T790M/C797S; [5]) | IC50 (EGFR L858R/T790M/C797S; [6]) | IC50 (EGFR wildtype; [7]) | IC50 (EGFR wildtype; IC50 WT, 100 μM ATP) | IC50 (EGFR del19/T790M/C797S; [8]) | IC50 (EGFR del19/C797S; [9]) | IC50 (EGFR L858R/C797S; [10]) | IC50 (EGFR L858R/T790M/C797S; [11]) | IC50 (EGFR wildtype; [12]) | Structure (SMILES) |
| --- | --- | --- | --- | --- | --- | --- | --- | --- | --- | --- | --- | --- | --- | --- | --- |
| 0.2 nM | 0.2 nM | 0.1 nM | 0.2 nM | 0.1 nM | 0.8 nM | 0.1 nM | 0.1 nM | 0.3 nM | 206 nM | – | – | – | – | – | CN1CC(Oc2ccc(-c3cnc(Nc4ccnc(-c5cnn(S(=O)(=O)C6CC6)c5)n4)cc3N[C@H]3CC[C@@](C)(O)CC3)nc2)C1 [Example 289, (1s,4s)-4-((6′-((2-(1-(Cyclopropylsulfonyl)-1H-pyrazol-4-yl)pyrimidin-4-yl)amino)-5-((1-methylazetidin-3-yl)oxy)-[2,3′-bipyridin]-4′-yl)amino)-1-methylcyclohexan-1-ol] |
| 0.4 nM | 0.4 nM | 0.2 nM | 0.3 nM | 0.1 nM | 0.6 nM | 0.1 nM | 0.2 nM | 0.5 nM | 118 nM | – | – | – | – | – | C[C@]1(O)CC[C@@H](Nc2cc(Nc3ccnc(-c4cnn(S(=O)(=O)C5CC5)c4)n3)ncc2-c2ccc(OCCN3CCC3)cn2)CC1 [Example 290, (1s,4s)-4-((5-(2-(Azetidin-1-yl)ethoxy)-6′-((2-(1-(cyclopropylsulfonyl)-1H-pyrazol-4-yl)pyrimidin-4-yl)amino)-[2,3′-bipyridin]-4′-yl)amino)-1-methylcyclohexan-1-ol] |
| 0.5 nM | – | – | 4.9 nM | 2.3 nM | 2.8 nM | 0.5 nM | 1 nM | 3.7 nM | > 10000 nM | – | – | – | – | – | CC(C)(F)c1ccc(-c2cnc(Nc3ccnc(-c4cnn(S(=O)(=O)C5CC5)c4)n3)cc2N[C@H]2CC[C@@](C)(O)CC2)nc1 [Example 291, (1s,4s)-4-((6′-((2-(1-(Cyclopropylsulfonyl)-1H-pyrazol-4-yl)pyrimidin-4-yl)amino)-5-(2-fluoropropan-2-yl)-[2,3′-bipyridin]-4′-yl)amino)-1-methylcyclohexan-1-ol] |
| 0.6 nM | 2.6 nM | 1.4 nM | 9.8 nM | 4.4 nM | 19.1 nM | 0.6 nM | 1.1 nM | 8.9 nM | 5170 nM | – | – | – | – | – | CC(F)(F)c1ccc(-c2cnc(Nc3ccnc(-c4cnn(S(=O)(=O)C5CC5)c4)n3)cc2N[C@H]2CC[C@@](C)(O)CC2)nc1 [Example 292, (1s,4s)-4-((6′-((2-(1-(Cyclopropylsulfonyl)-1H-pyrazol-4-yl)pyrimidin-4-yl)amino)-5-(1,1-difluoroethyl)-[2,3′-bipyridin]-4′-yl)amino)-1-methylcyclohexan-1-ol] |
| 0.7 nM | 3.4 nM | 9.6 nM | 16.2 nM | 15.4 nM | 63 nM | 0.7 nM | – | 138 nM | 1540 nM | – | – | – | – | – | C[C@]1(O)CC[C@@H](Nc2cc(Nc3ccnc(-c4cnn(S(=O)(=O)C5CC5)c4)n3)ncc2-c2cccc(CC(F)(F)F)n2)CC1 [Example 293, (1s,4s)-4-((6′-((2-(1-(Cyclopropylsulfonyl)-1H-pyrazol-4-yl)pyrimidin-4-yl)amino)-6-(2,2,2-trifluoroethyl)-[2,3′-bipyridin]-4′-yl)amino)-1-methylcyclohexan-1-ol] |
| 9.8 nM | – | 60.8 nM | – | 38.5 nM | – | 2.3 nM | – | 28 nM | – | – | – | – | – | – | CC(C)Nc1cc(Nc2ccnc(-c3cnn(S(=O)(=O)C4CC4)c3)n2)ncc1-c1ccc(C(O)C(F)(F)F)cn1 (stereo not drawn) [Example 294, 1-(6′-((2-(1-(Cyclopropylsulfonyl)-1H-pyrazol-4-yl)pyrimidin-4-yl)amino)-4′-(isopropylamino)-[2,3′-bipyridin]-5-yl)-2,2,2-trifluoroethan-1-ol] |
| 4.5 nM | – | 17.6 nM | – | 10.1 nM | – | 3.7 nM | – | 89.8 nM | – | – | – | – | – | – | CN(C)S(=O)(=O)n1cc(-c2nccc(Nc3cc(N[C@H]4CC[C@@](C)(O)CC4)c(-c4ccc(CC(F)(F)F)cn4)cn3)n2)cn1 [Example 296, 4-(4-((4′-(((1s,4s)-4-Hydroxy-4-methylcyclohexyl)amino)-5-(2,2,2-trifluoroethyl)-[2,3′-bipyridin]-6′-yl)amino)pyrimidin-2-yl)-N,N-dimethyl-1H-pyrazole-1-sulfonamide] |
| 1.6 nM | – | 4 nM | – | 3 nM | – | 1.4 nM | – | 39.9 nM | – | – | – | – | – | – | CN(C)S(=O)(=O)n1cc(-c2nccc(Nc3cc(NC4CCC(C)(O)CC4)c(-c4ccc(C(O)C(F)(F)F)cn4)cn3)n2)cn1 (stereo not drawn) [Example 297, 4-(4-((4′-(((1s,4s)-4-Hydroxy-4-methylcyclohexyl)amino)-5-(2,2,2-trifluoro-1-hydroxyethyl)-[2,3′-bipyridin]-6′-yl)amino)pyrimidin-2-yl)-N,N-dimethyl-1H-pyrazole-1-sulfonamide] |
| 1.8 nM | – | 2.9 nM | – | 1.7 nM | – | 1.1 nM | – | 15.4 nM | – | – | – | – | – | – | CN(C)S(=O)(=O)n1cc(-c2nccc(Nc3cc(NC4CCC(C)(O)CC4)c(-c4ccc(C(C)(O)C(F)(F)F)cn4)cn3)n2)cn1 (stereo not drawn) [Example 298, 4-(4-((4′-(((1s,4s)-4-Hydroxy-4-methylcyclohexyl)amino)-5-(1,1,1-trifluoro-2-hydroxypropan-2-yl)-[2,3′-bipyridin]-6′-yl)amino)pyrimidin-2-yl)-N,N-dimethyl-1H-pyrazole-1-sulfonamide] |
| 5.7 nM | – | 28.6 nM | – | 8.5 nM | – | 3.2 nM | – | 245 nM | – | – | – | – | – | – | C[C@]1(O)CC[C@@H](Nc2cc(Nc3nc(-c4cnn(S(=O)(=O)C5CC5)c4)ncc3F)ncc2-c2ccc(CC(F)(F)F)cn2)CC1 [Example 299, (1s,4s)-4-((6′-((2-(1-(Cyclopropylsulfonyl)-1H-pyrazol-4-yl)-5-fluoropyrimidin-4-yl)amino)-5-(2,2,2-trifluoroethyl)-[2,3′-bipyridin]-4′-yl)amino)-1-methylcyclohexan-1-ol] |
| – | – | – | – | – | – | – | – | – | – | 1.9 nM | 3.5 nM | 2.4 nM | 0.7 nM | 17.4 nM | C[C@]1(O)CC[C@@H](Nc2cc(Nc3ccnc(-c4cnn(S(=O)(=O)C5CC5)c4)n3)ncc2-c2cc(OC(F)F)ccn2)CC1 [Example 331, (1s,4s)-4-((6′-((2-(1-(Cyclopropylsulfonyl)-1H-pyrazol-4-yl)pyrimidin-4-yl)amino)-4-(difluoromethoxy)-[2,3′-bipyridin]-4′-yl)amino)-1-methylcyclohexan-1-ol] |
| – | – | – | – | – | – | – | – | – | – | 1.6 nM | 2.4 nM | 1.8 nM | 0.7 nM | 21 nM | C[C@]1(O)CC[C@@H](Nc2cc(Nc3ccnc(-c4cnn(S(=O)(=O)C5CC5)c4)n3)ncc2-c2ccc(OC(F)F)cn2)CC1 [Example 332, (1s,4s)-4-((6′-((2-(1-(Cyclopropylsulfonyl)-1H-pyrazol-4-yl)pyrimidin-4-yl)amino)-5-(difluoromethoxy)-[2,3′-bipyridin]-4′-yl)amino)-1-methylcyclohexan-1-ol] |
| – | – | – | – | – | – | – | – | – | – | 4.1 nM | 460 nM | 795 nM | 2.6 nM | 117 nM | C[C@]1(O)CC[C@@H](Nc2cc(Nc3ccnc(-c4cnn(S(=O)(=O)C5CC5)c4)n3)ncc2-c2ncccc2OCC(F)(F)F)CC1 [Example 333, (1s,4s)-4-((6′-((2-(1-(Cyclopropylsulfonyl)-1H-pyrazol-4-yl)pyrimidin-4-yl)amino)-3-(2,2,2-trifluoroethoxy)-[2,3′-bipyridin]-4′-yl)amino)-1-methylcyclohexan-1-ol] |
| – | – | – | – | – | – | – | – | – | – | 2.1 nM | 170 nM | 191 nM | 1.4 nM | 189 nM | C[C@]1(O)CC[C@@H](Nc2cc(Nc3ccnc(-c4cnn(S(=O)(=O)C5CC5)c4)n3)ncc2-c2ncccc2OCC(F)F)CC1 [Example 334, (1s,4s)-4-((6′-((2-(1-(Cyclopropylsulfonyl)-1H-pyrazol-4-yl)pyrimidin-4-yl)amino)-3-(2,2-difluoroethoxy)-[2,3′-bipyridin]-4′-yl)amino)-1-methylcyclohexan-1-ol] |
| – | – | – | – | – | – | – | – | – | – | 5.8 nM | 1840 nM | 1780 nM | 2.6 nM | 248 nM | COc1c(F)ccnc1-c1cnc(Nc2ccnc(-c3cnn(S(=O)(=O)C4CC4)c3)n2)cc1N[C@H]1CC[C@@](C)(O)CC1 [Example 335, (1s,4s)-4-((6′-((2-(1-(Cyclopropylsulfonyl)-1H-pyrazol-4-yl)pyrimidin-4-yl)amino)-4-fluoro-3-methoxy-[2,3′-bipyridin]-4′-yl)amino)-1-methylcyclohexan-1-ol] |
| – | – | – | – | – | – | – | – | – | – | 345 nM | 3820 nM | 1670 nM | 43.9 nM | 235 nM | COc1c(F)ccnc1-c1cnc(Nc2ccnc(-c3cnn(CC(F)F)c3)n2)cc1N[C@H]1CC[C@@](C)(O)CC1 [Example 336, (1s,4s)-4-((6′-((2-(1-(2,2-Difluoroethyl)-1H-pyrazol-4-yl)pyrimidin-4-yl)amino)-4-fluoro-3-methoxy-[2,3′-bipyridin]-4′-yl)amino)-1-methylcyclohexan-1-ol] |
